Laboratory results as given in ChEMBL document CHEMBL1909046, “DrugMatrix in vitro pharmacology data”.

Experiments:
[1] = biological target: T1, Neuropeptide Y receptor type 2 (Homo sapiens, UniProt P49146); format: cell membranes, Membrane; conditions: kan-ts; note: in other assays of this panel Not Active means under 50% inhibition at 10 µM
T1 sequence (P49146 whole entry): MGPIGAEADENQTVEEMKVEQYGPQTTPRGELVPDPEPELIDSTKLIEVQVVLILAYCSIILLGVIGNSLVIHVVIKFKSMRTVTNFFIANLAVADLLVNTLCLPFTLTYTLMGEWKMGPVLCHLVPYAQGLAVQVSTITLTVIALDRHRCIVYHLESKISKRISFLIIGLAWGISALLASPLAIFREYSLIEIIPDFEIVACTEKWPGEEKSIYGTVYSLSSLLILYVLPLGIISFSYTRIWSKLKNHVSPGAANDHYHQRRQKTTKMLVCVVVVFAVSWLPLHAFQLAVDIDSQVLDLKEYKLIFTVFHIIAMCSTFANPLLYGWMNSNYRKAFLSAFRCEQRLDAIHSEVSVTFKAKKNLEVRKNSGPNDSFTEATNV

[2] = DRUGMATRIX: Calcium Channel Type L, Phenylalkylamine radioligand binding (ligand: [3H] (-)-Desmethoxyverapamil (D-888)); format: cell membranes, Rattus norvegicus, Wistar, Brain, Membrane; conditions: Not Active = under 50% inhibition at 10 µM
[3] = biological target: T2, C-C chemokine receptor type 4 (Homo sapiens, UniProt P51679); format: cell membranes, Membrane; conditions: chem-1; note: in other assays of this panel Not Active means under 50% inhibition at 10 µM
T2 sequence (P51679 whole entry): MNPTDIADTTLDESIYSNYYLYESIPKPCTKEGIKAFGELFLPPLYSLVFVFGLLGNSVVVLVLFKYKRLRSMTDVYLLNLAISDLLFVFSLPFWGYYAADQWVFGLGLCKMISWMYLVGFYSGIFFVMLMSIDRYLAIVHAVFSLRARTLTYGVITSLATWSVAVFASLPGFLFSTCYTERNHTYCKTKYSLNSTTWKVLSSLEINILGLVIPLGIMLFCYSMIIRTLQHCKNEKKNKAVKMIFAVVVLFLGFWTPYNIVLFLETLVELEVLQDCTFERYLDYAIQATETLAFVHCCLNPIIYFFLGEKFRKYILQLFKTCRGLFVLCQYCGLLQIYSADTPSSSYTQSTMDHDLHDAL

[4] = biological target: Substance-P receptor (Homo sapiens, UniProt P25103); format: cell membranes, CHO, Membrane; note: in other assays of this panel Not Active means under 50% inhibition at 10 µM
Chain of Substance-P receptor (P25103 whole entry): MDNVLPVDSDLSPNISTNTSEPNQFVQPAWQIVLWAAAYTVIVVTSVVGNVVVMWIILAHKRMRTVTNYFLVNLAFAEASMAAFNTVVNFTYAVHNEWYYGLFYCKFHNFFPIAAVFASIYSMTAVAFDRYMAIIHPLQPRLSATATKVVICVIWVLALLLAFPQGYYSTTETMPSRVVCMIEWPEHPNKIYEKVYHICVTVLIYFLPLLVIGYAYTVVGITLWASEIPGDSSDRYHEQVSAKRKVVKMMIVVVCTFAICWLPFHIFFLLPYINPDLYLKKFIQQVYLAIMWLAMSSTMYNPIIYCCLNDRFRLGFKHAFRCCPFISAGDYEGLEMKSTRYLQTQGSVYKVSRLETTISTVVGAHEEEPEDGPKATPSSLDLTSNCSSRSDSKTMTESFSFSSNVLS

[5] = biological target: Adenosine receptor A2a (Homo sapiens, UniProt P29274); experiment: DRUGMATRIX: Adenosine A2A radioligand binding (ligand: […]); format: cell membranes, HEK293, Membrane; conditions: hek293; Not Active = under 50% inhibition at 10 µM
Chain of Adenosine receptor A2a (P29274 whole entry): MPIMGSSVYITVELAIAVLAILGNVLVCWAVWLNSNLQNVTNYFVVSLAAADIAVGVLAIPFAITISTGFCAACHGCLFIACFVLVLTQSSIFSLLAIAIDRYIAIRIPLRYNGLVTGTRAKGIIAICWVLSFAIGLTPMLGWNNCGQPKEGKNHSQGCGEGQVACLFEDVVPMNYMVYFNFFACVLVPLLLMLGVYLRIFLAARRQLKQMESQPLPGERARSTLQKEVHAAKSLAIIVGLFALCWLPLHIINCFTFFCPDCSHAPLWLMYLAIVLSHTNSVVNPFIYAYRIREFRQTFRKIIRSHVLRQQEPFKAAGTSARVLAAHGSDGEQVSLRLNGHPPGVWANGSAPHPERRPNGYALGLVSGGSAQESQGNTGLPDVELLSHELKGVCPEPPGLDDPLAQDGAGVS

[6] = biological target: Platelet-activating factor receptor (Homo sapiens, UniProt P25105); experiment: biochemical; format: tissue-based; note: in other assays of this panel Not Active means under 50% inhibition at 10 µM
Chain of Platelet-activating factor receptor (P25105 whole entry): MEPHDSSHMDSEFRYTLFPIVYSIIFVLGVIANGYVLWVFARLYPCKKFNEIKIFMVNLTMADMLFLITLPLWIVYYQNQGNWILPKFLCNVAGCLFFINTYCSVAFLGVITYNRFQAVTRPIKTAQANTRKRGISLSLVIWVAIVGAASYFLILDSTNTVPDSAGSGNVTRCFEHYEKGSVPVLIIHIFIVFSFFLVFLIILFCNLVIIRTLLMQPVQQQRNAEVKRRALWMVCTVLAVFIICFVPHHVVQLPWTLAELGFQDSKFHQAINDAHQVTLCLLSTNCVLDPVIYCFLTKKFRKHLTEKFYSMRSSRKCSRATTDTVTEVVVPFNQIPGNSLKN

[7] = biological target: T3, Thromboxane-A synthase (Homo sapiens, UniProt P24557); experiment: biochemical; format: tissue-based, Platelet
T3 sequence (P24557 whole entry): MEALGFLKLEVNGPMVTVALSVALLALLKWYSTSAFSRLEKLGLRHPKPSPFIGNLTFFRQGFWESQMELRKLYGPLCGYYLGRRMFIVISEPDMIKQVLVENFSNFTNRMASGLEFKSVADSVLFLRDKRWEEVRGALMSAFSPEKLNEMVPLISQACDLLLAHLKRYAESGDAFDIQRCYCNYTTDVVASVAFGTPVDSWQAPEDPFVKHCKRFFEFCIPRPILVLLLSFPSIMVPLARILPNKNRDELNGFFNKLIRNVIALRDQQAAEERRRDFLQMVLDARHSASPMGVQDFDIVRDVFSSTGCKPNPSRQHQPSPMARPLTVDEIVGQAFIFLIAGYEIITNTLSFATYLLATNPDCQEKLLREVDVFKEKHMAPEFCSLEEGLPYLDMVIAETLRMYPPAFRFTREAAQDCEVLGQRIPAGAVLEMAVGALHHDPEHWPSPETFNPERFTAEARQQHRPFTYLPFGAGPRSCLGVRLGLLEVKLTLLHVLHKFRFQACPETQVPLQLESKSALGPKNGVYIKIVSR

[8] = biological target: Glycine receptor (Rattus norvegicus, UniProt P22771+P24524+P07727+P20781); format: cell membranes, Wistar, Spinal cord, Membrane; note: in other assays of this panel Not Active means under 50% inhibition at 10 µM
[9] = DRUGMATRIX: Glutamate, Kainate radioligand binding (ligand: [3H] Kainic acid); format: cell membranes, Rattus norvegicus, Wistar, Brain, Membrane; conditions: Not Active = under 50% inhibition at 10 µM
[10] = biological target: D(1A) dopamine receptor (Homo sapiens, UniProt P21728); experiment: DRUGMATRIX: Dopamine D1 radioligand binding (ligand: [3H] SCH-23390); format: cell membranes, CHO, Membrane; conditions: cho; Not Active = under 50% inhibition at 10 µM
Chain of D(1A) dopamine receptor (P21728 whole entry): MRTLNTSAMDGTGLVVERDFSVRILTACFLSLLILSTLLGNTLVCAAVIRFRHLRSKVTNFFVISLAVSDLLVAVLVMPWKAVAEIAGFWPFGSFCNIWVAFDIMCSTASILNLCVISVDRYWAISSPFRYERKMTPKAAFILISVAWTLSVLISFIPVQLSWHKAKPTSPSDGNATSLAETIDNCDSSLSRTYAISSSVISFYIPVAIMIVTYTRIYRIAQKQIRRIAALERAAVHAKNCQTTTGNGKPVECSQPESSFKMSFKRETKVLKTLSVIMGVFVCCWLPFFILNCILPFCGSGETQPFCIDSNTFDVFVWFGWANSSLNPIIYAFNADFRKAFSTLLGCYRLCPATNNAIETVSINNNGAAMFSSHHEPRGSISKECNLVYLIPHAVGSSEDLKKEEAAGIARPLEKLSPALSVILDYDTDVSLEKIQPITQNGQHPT

[11] = biological target: 5-hydroxytryptamine receptor 2B (Homo sapiens, UniProt P41595); format: cell membranes, CHO-K1, Membrane; conditions: for Ki: read-out: Ki
Chain of 5-hydroxytryptamine receptor 2B (P41595 whole entry): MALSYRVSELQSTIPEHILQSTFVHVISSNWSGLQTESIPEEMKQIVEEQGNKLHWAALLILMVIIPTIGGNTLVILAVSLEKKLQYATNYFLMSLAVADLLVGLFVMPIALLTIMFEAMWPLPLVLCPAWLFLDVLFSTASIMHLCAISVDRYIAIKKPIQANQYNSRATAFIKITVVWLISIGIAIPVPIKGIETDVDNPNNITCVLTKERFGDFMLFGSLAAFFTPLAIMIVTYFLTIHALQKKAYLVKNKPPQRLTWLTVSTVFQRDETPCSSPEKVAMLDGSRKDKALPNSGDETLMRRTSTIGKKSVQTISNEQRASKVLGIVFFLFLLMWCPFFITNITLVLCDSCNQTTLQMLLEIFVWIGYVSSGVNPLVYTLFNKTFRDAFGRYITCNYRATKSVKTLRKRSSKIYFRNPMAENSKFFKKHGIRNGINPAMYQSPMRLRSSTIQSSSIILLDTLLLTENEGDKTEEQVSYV

[12] = DRUGMATRIX: Tumor Necrosis Factor (TNF), Non-Selective radioligand binding (ligand: [125I] TNF-alpha); format: cell membranes, Membrane; conditions: u-937; Not Active = under 50% inhibition at 10 µM
[13] = biological target: Mitogen-activated protein kinase 14 (Homo sapiens, UniProt Q16539); design: species or system Escherichia coli
Chain of Mitogen-activated protein kinase 14 (Q16539 whole entry): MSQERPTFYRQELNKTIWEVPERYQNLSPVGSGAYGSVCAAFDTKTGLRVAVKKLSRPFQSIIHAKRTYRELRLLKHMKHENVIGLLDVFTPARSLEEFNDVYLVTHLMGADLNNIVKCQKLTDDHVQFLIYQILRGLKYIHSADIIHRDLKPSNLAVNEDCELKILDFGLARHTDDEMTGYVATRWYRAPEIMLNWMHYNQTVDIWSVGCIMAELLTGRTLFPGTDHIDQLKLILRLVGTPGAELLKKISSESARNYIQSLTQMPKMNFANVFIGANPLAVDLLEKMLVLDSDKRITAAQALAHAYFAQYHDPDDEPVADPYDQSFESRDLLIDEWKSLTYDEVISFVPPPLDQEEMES

[14] = biological target: T4, Caspase-1 (Homo sapiens, UniProt P29466); design: species or system Escherichia coli
T4 sequence (P29466 whole entry): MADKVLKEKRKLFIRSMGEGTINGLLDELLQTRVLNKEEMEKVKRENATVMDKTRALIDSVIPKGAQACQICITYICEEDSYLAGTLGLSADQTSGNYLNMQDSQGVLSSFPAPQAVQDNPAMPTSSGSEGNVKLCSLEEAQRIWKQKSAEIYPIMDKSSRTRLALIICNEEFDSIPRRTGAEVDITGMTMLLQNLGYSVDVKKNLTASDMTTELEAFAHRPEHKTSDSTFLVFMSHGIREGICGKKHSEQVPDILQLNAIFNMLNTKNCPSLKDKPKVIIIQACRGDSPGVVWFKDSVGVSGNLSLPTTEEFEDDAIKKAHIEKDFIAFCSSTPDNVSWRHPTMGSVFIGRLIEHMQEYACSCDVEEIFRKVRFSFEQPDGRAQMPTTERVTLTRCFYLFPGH

[15] = biological target: T5, Adenosine receptor A3 (Homo sapiens, UniProt P0DMS8); format: cell membranes, CHO-K1, Membrane
T5 sequence (P0DMS8 whole entry): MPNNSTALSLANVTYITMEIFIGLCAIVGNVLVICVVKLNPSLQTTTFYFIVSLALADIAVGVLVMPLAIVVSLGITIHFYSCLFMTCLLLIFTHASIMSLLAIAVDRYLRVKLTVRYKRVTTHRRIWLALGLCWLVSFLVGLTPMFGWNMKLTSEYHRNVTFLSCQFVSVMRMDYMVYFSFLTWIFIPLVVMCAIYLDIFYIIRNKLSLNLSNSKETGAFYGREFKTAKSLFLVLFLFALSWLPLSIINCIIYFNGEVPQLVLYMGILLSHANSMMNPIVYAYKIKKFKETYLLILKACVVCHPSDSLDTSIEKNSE

Compound	IC50 [1]	IC50 [3]	IC50 ([4]; cho)	IC50 [5]	IC50 ([6]; platelet)	IC50 ([7]; read-out: IC50)	IC50 [8]	IC50 [13]	IC50 [14]	IC50 ([15]; cho-k1)	IC50 ([7]; platelet)	other results
CC(C)(C)NC(=O)[C@@H]1CN(Cc2cccnc2)CCN1C[C@@H](O)C[C@@H](Cc1ccccc1)C(=O)N[C@H]1c2ccccc2C[C@H]1O.O	Not Active	Not Active	Not Active	Not Active	Not Active	1850 nM	Not Active	Not Active	Not Active	Not Active	–	IC50 [2]: Not Active; Ki [2]: Not Active; IC50 [9]: Not Active; Ki [9]: Not Active; IC50 [10]: Not Active; IC50 ([11]; cho-k1): Not Active; IC50 [12]: Not Active; Ki [12]: Not Active
COc1ccc(CCN2CCC(Nc3nc4ccccc4n3Cc3ccc(F)cc3)CC2)cc1 [ASTEMIZOLE]	Not Active	Not Active	–	Not Active	Not Active	–	Not Active	Not Active	Not Active	–	Not Active	–
CN(C)CCCN1c2ccccc2CCc2ccc(Cl)cc21 [CLOMIPRAMINE]	Not Active	Not Active	Not Active	Not Active	Not Active	–	Not Active	Not Active	Not Active	Not Active	Not Active	IC50 ([11]; read-out: IC50): 239 nM; Ki [11]: 152 nM
Clc1ccccc1C(c1ccccc1)(c1ccccc1)n1ccnc1 [CLOTRIMAZOLE]	Not Active	Not Active	–	–	–	14 nM	Not Active	Not Active	Not Active	–	–	IC50 ([4]; read-out: IC50): 16000 nM; Ki ([4]; read-out: Ki): 8750 nM; IC50 ([6]; read-out: IC50): 35000 nM; Ki ([6]; read-out: Ki): 22600 nM; IC50 ([11]; read-out: IC50): 11600 nM; Ki [11]: 7380 nM; IC50 ([15]; read-out: IC50): 4750 nM; Ki ([15]; read-out: Ki): 2690 nM
O=C(CCCN1CCC(O)(c2ccc(Cl)cc2)CC1)c1ccc(F)cc1 [HALOPERIDOL]	Not Active	Not Active	Not Active	Not Active	Not Active	–	Not Active	Not Active	Not Active	Not Active	Not Active	–
CN1CCN2c3ccccc3Cc3ccccc3C2C1 (stereo unspecified) [MIANSERIN]	Not Active	Not Active	Not Active	Not Active	Not Active	–	Not Active	Not Active	Not Active	Not Active	Not Active	–
CC(C)(O)c1ccccc1CC[C@@H](SCC1(CC(=O)O)CC1)c1cccc(/C=C/c2ccc3ccc(Cl)cc3n2)c1 [MONTELUKAST]	Not Active	Not Active	Not Active	Not Active	Not Active	1520 nM	Not Active	–	Not Active	–	–	IC50 ([13]; read-out: IC50): 856 nM
COC(=O)C1=C(C)NC(C)=C(C(=O)OC)C1c1ccccc1[N+](=O)[O-] [NIFEDIPINE]	Not Active	Not Active	Not Active	Not Active	Not Active	18600 nM	Not Active	Not Active	Not Active	–	–	IC50 ([2]; read-out: IC50): 878 nM; Ki ([2]; read-out: Ki): 853 nM; IC50 [9]: Not Active; Ki [9]: Not Active; IC50 [10]: Not Active; IC50 ([11]; cho-k1): Not Active; IC50 [12]: Not Active; Ki [12]: Not Active
CSc1ccc2c(c1)N(CCC1CCCCN1C)c1ccccc1S2 (stereo unspecified) [THIORIDAZINE]	Not Active	Not Active	Not Active	Not Active	Not Active	–	Not Active	Not Active	Not Active	Not Active	Not Active	–
COc1cccc(C2(O)CCCCC2CN(C)C)c1 (stereo unspecified) [TRAMADOL]	Not Active	Not Active	Not Active	Not Active	Not Active	–	Not Active	Not Active	Not Active	Not Active	Not Active	IC50 ([11]; cho-k1): Not Active
COC(=O)[C@@H]1[C@H]2C[C@H]3c4[nH]c5ccccc5c4CCN3C[C@@H]2CC[C@@H]1O [YOHIMBINE]	Not Active	Not Active	Not Active	Not Active	Not Active	–	Not Active	Not Active	Not Active	Not Active	Not Active	IC50 [2]: Not Active; Ki [2]: Not Active; IC50 [9]: Not Active; Ki [9]: Not Active; IC50 [10]: Not Active; IC50 [12]: Not Active; Ki [12]: Not Active
